Measured values from patent US10231979B2, “Modulation of inflammation using progesterone metabolites” (Indiana University Research and Technology Corporation, priority 2015, dated 2019).
Read-outs that look alike come from different tables or passages of the source. Each block holds one compound with its values, some of them ahead of it.

What was measured:
[1] = test system: uterine horns from wild-type (WT) C57BL/6J female mice; assay: Spontaneous uterine contractility, isolated uterine horns in tissue organ bath; details: for IC50: spontaneous, dose-response 10^-9 to 10^-6 mol/L
Procedure: (§1) FIGS. 2A & 2B are representative contraction tracings of uterine horns from wild-type (WT) C57BL/6J female mice. FIG. 2A: Uterine horns were isolated and suspended in a tissue organ bath at 0.5 g of tension. Once equilibrated, selected progestin treatments were added in successively increasing concentrations from 10^−9 to 10^−6 mol/L in 20-minute intervals to assess effect on spontaneous contractile activity (progesterone treatment, bottom panel). The contralateral horn from each mouse was treated with a matching ethanol vehicle (top panel). All contraction responses were measured and reported as the area under the contraction curve (AUC), normalized to the AUC of the spontaneous contraction pattern that preceded treatment. FIG. 2B: Treatment effect on oxytocin-induced contractility was assessed by exposing horns to selected progestin treatments (10^−6 mol/L), followed by increasing doses of oxytocin (Oxt) (1, 10, 50, and 100 nmol/L) in 10-minute intervals (bottom panel). The contralateral horn from each mouse was treated with a matching ethanol vehicle (top panel). Contraction responses were measured and reported as described above.
(§2) All progestins were solubilized in ethanol and then diluted in phosphate-buffered saline to the desired molar concentration. […] The concentration of ethanol decreased parallel to the progestin dose in order to minimize the effect of the solvent on uterine contractility.
(§3) Virgin nonpregnant wild-type C57BL/6J female mice (Jackson Labs, Bar Harbor, Me.) were obtained at 10 to 12 weeks of age and fed a standard diet. Mice were euthanized by an IACUC-approved protocol, and each of the 2 uterine horns were removed. A 1 cm×0.5 cm segment of the uterine horn was suspended using 4-0 silk suture between a stainless steel wire hook connected to a Radnoti force displacement transducer (Radnoti LLC, Monrovia, Calif.) and a glass hook inside an organ bath that served as an anchor. The bath was filled with modified Krebs buffer (118 mmol/L NaCl, […], 1.2 mmol/L MgSO4, 1.2 mmol/L KH2PO4, 2.5 mmol/L CaCl2, 25 mmol/L NaHCO3, and 11 mmol/L glucose, pH 7.4), maintained at 37° C., and constantly bubbled with a premixed gas consisting of 20% O2, 5% CO2, and balance N2. Uterine horns were equilibrated at 0.5 g of tension for approximately 30 minutes until a spontaneous contraction pattern was established.
A total of 60 mice were utilized to assess the effect of the selected treatments on uterine contractility, 30 in the spontaneous contraction group and 30 in the oxytocin-induced group. Six mice were in each progestin treatment group during both spontaneous and oxytocin-induced contractility arms of the study. To determine the nongenomic (acute) effect of the progestin treatments on spontaneous uterine contractility, a segment of uterine horn from each mouse was exposed to a single progestin (progesterone, 17-OHPC, 2α-OHP, 6β-OHP, or 16αOHP), while a segment of the contralateral horn was exposed to a matching dose of ethanol vehicle. After a spontaneous contraction pattern was achieved, the progestin treatment was added to the tissue organ bath in successively increasing concentrations from 10^−9 to 10^−6 mol/L in 20-minute intervals. At the end of the treatments, the tissue was washed in modified Krebs buffer and then exposed to KCl (60 mmol/L) to elicit a tetanic response and confirm tissue viability.
Uterine contraction responses were recorded using LabChart Pro (ADInstruments, Colorado Springs, Colo.) software as the force generated with time (g×min). Baseline uterine contractility was calculated as the area under the curve (AUC) for a 10-minute period of spontaneous contractions. The AUC of the uterine contractile response to each treatment (progestin or oxytocin) was determined and expressed as a percentage of the baseline AUC observed during spontaneous contraction. […]

[2] = test system: uterine horns from wild-type (WT) C57BL/6J female mice; assay: Oxytocin-induced uterine contractility after progestin pretreatment, isolated uterine horns in tissue organ bath; details: for EC50: oxytocin-induced dose-response (1-100 nmol/L oxytocin) after progestin pretreatment 10^-6 mol/L
Procedure: as §1, §2, §3
To determine the nongenomic effect of progestin treatments on oxytocin-induced uterine contractility, the uterine horns were pretreated with a single progestin at 10^−6 mol/L for 10 minutes after a spontaneous contractile pattern was established. The contralateral horn from the same mouse was treated with ethanol vehicle at a matching concentration. The uterine horns were subsequently exposed to increasing concentrations of oxytocin (1, 10, 50, and 100 nmol/L) in 10-minute intervals. At the end of the oxytocin treatments, the tissue was washed and then exposed to KCl (60 mmol/L) to elicit a tetanic response and confirm tissue viability.
Uterine contraction responses were recorded using LabChart Pro (ADInstruments, Colorado Springs, Colo.) software as the force generated with time (g×min). Baseline uterine contractility was calculated as the area under the curve (AUC) for a 10-minute period of spontaneous contractions. The AUC of the uterine contractile response to each treatment (progestin or oxytocin) was determined and expressed as a percentage of the baseline AUC observed during spontaneous contraction. […] To account for repeated measurements for individual muscle strips at increasing treatment doses, a repeated measures 2-way analysis of variance model was used to compare the dose-response curves. Each dose-response curve was fit by nonlinear regression and compared using an extra sum of squares F test. The mean max-fit response was compared between each progestin and vehicle control to determine maximum treatment efficacy. […]

[3] = test system: primary uterine smooth muscle cells (UtSMC); assay: IL-6 production in UtSMC stimulated with LPS; format: cell-based; details: UtSMC pre-treated, then LPS
Procedure: In this Example, the effect of progesterone metabolites 16αOHP and 6β-OHP on inflammation in primary uterine smooth muscle cells (UtSMC) was analyzed.
UtSMC were cultured in the presence of DMSO and one of the following: (1) progesterone; (2) […]; (3) 6β-OHP; and (4) 16αOHP. Lipopolysaccharide (LPS) was then added to the culture to stimulate an immune inflammatory reaction. Experiments were performed in triplicate.

[4] = test system: primary uterine smooth muscle cells (UtSMC); assay: IL-6 production in UtSMC stimulated with TNF-α; format: cell-based
From the text: FIGS. 5A & 5B are graphs depicting the effect of progesterone metabolites 16αOHP and 6β-OHP on inflammation in primary uterine smooth muscle cells (UtSMC).

THP-1 monocyte cells = assay: Flow cytometry of monocyte-derived macrophage population (PMA differentiation); format: cell-based; details: THP-1 pre-treated 24 hours, then PMA
Procedure: FIGS. 6A-6C depict flow cytometry of a monocyte-derived macrophage population pre-treated with progesterone metabolites. THP-1 monocyte cells were pre-treated with progesterone metabolites 16αOHP and 6β-OHP for 24 hours, then stimulated to differentiate to macrophages by exposure to PMA.
THP-1 monocyte cells were pre-treated with progesterone metabolites 16αOHP and 6β-OHP for 24 hours, then stimulated to differentiate to macrophages by exposure to phorbol 12-myristate 13-acetate (PMA).

THP-1 monocytes = assay: IL-6 production in THP-1 monocytes stimulated with LPS; format: cell-based; details: THP-1 monocytes pretreated, then LPS; versus positive control
Procedure: FIG. 9 is a graph depicting the effect of progesterone and progesterone metabolites (16αOHP and 6β-OHP) on inflammation in THP-1 monocytes stimulated with LPS.
In this Example, the effect of progesterone and progesterone metabolites (16αOHP and 6β-OHP) on inflammation in THP-1 monocytes stimulated with LPS was analyzed.

CYP3A [5] = test system: CYP3A
CYP3A [6] = assay: CYP3A production of 16α-OHP and 6β-OHP in human liver microsomes (HLMs); details: p<0.01
[7] = maximal oxytocin dose (100 nmol/L)
[8] = oxytocin-induced, progestin pretreatment 10^-6 mol/L, maximal oxytocin dose (100 nmol/L)

IC50 ([1]; read-out: Contractile Force IC50): 0.48 nM
IC50 ([1]; read-out: Contractile Frequency IC50): 4.1 nM
EC50 ([2]; read-out: Contractile Force EC50): 20.9 nM
EC50 ([2]; read-out: Contractile Frequency EC50): 12.8 nM
Production of metabolite in human liver microsomes (in words) (CYP3A [5]): favored
Compound: CC(=O)[C@H]1CC[C@H]2[C@@H]3C[C@@H](O)C4=CC(=O)CC[C@]4(C)[C@H]3CC[C@]12C [6β-OHP, 4-pregnen-6β-ol-3,20-dione]
Spontaneous contractile force compared with the vehicle control (in words) ([1]; maximal treatment dose): No significant difference
Spontaneous uterine contraction frequency compared to vehicle control (in words) ([1]; maximal treatment dose): not significantly decreased
Contractile Frequency/10 min (% of baseline), Drug ([1]; spontaneous contractility, maximal treatment dose): 46.2% of baseline
Contractile Force (% of baseline), Drug ([1]; spontaneous contractility, maximal treatment dose, AUC as % of baseline AUC): 45% of baseline
Effect on oxytocin-induced uterine contractility (in words) [2]: increase
Oxytocin-induced contractile force compared to vehicle control (in words) [2, 7]: no differences
Oxytocin-induced contraction frequency compared to control (in words) [2, 7]: decreased significantly
Contractile Force (% of baseline), Drug [2, 8]: 267.6% of baseline
Contractile Frequency/10 min (% of baseline), Drug [2, 8]: 196.1% of baseline
Contractile Frequency/10 min (% of baseline), Drug ([2]; oxytocin-induced, progestin pretreatment 10^-6 mol/L, maximal oxytocin dose (100 nmol/L), listed as 6β-hydroxyprogesterone): 196 % of baseline
IL-6 ([3]; LPS positive control 121.7 pg/mL): 125.4 pg/mL
IL-6, % of positive control ([3]; relative to DMSO+LPS positive control): 102%
IL-6 production (in words) [4]: decreased IL-6 production
Macrophage population/phenotype compared to DMSO treated control (in words) (THP-1 monocyte cells): decrease in the macrophage population/phenotype
Macrophages, % of the total population (THP-1 monocyte cells; DMSO control 77%): 52%
Inflammatory response (IL-6 production) (in words) (THP-1 monocytes): significantly decreased IL-6 production

Compound: CC(=O)N1CCN(c2ccc(OCC3COC(Cn4ccnc4)(c4ccc(Cl)cc4Cl)O3)cc2)CC1 (stereo not shown) [ketoconazole]
Effect on CYP3A production of 16α-OHP and 6β-OHP (CYP3A [6]): inhibited
